In patent publication US20240376097A1, “BCL-2 Inhibitor” (BeiGene Ltd., priority 2020, published 2024):
pIC50: −log10 of the molar value. Read-outs that look alike come from different tables or passages of the source.

Key:
[1] = tested on: BCL-2 G101V knock-in cell line H96 (derive from RS4;11); assay: Bcl 2-G101V Knock-In RS4;11 Cell Proliferation Assay; format: cell-based; settings: Homo sapiens, RS4;11 Bcl-2 G101V knock-in clone H96, 48 hrs, CellTiter-GLO, read-out: Cellular proliferation assay (IC50, nM) RS4
Summary of the method: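 CellTiter-Glo luminescence after 48 h, 37 °C compound treatment (10 concentrations, maximum 1 μM or 10 μM) gave mean IC50 values. Cells were 50,000 per well of H96, a BCL2-G101V knock-in single clone derived from RS4;11 by Cas9 editing.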

[2] = target: Recombinant human Bcl-2 protein (Homo sapiens (Human), UniProt P10415); assay: Bcl-2 TR-FRET Assay; format: binding
Summary of the method: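 Displacement of FITC-labelled Bak peptide (0.5 nM) from 0.05 nM human Bcl-2, detected by TR-FRET with Tb-cryptate anti-6His antibody after 1 h at room temperature. Compounds, 10-point series, preincubated 0.5 h with protein in 20 mM potassium phosphate pH 7.5, 50 mM NaCl. IC50s fitted by four-parameter logistic.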

[3] = tested on: RS4;11 (BCL-2 dependent acute lymphoblastic leukemia cell line); assay: RS4;11 Cell Proliferation Assay; format: cell-based; settings: read-out: Cellular proliferation assay (IC50, nM) RS4
Summary of the method: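 Viability measured via CellTiter-Glo luminescence after a 48 h, 37 °C exposure to compounds (10 points, highest 1 μM). Seeding was 50,000 RS4;11 cells per well in 10% FBS RPMI-1640; IC50 given as mean.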

[4] = target: recombinant human Bcl-2 D103Y protein (Homo sapiens (Human), UniProt P10415, D103Y); assay: Bcl-2-D103Y Biochemical Assay (TR-FRET); format: binding; settings: for pIC50: TR-FRET, FITC labeled Bak peptide; for ratio of Bcl-2 D103Y/Bcl-2 wt, compared with F91b in WO2019210828: comparison in words; for Ratio of Bcl-2 D103Y/Bcl-2 WT: ratio of IC50
Summary of the method: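 Compounds titrated against the Bcl-2 D103Y–ligand interaction; inhibition derived from the TR-FRET emission ratio 490 nm/520 nm after 337 nm excitation. Four-parameter logistic fitting gave IC50.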

[5] = target: recombinant human Bcl-2-G101V protein (Homo sapiens (Human), UniProt P10415, G101V); assay: Bcl-2-G101V TR-FRET Assay; format: binding; settings: Bcl-2 G101V mutant, TR-FRET; read-out: Biochemical assay (IC50, nM) Bcl-2 G101V
Summary of the method: (§1)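 TR-FRET read at excitation 337 nm with emission at 490 nm and 520 nm. Inhibition of Bcl-2-G101V binding to its ligand across increasing compound concentrations was calculated from the 490/520 nm fluorescence ratio, and IC50 values came from four-parameter logistic fits.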

[6] = tested on: recombinant human Bcl-2-G101V protein; assay: Bcl-2-G101V TR-FRET Assay; format: binding; settings: for Ratio of Bcl-2 G101V/WT: ratio of biochemical IC50 Bcl-2 G101V / Bcl-2 WT
Summary of the method: as §1

[7] = Bcl-2 wild type, TR-FRET, read-out: Biochemical assay (IC50, nM) Bcl-2 WT
[8] = wild type Bcl-2, unit inferred, read-out: Bcl-2 WT
[9] = Homo sapiens, RS4-11, RS4;11 cells

SMILES | IC50 [1] | IC50 [2, 7] | IC50 [2, 8] | IC50 ([3]; RS4;11 cells) | pIC50 [4] | ratio of Bcl-2 D103Y/Bcl-2 wt, compared with F91b in WO2019210828 [4] | Ratio of Bcl-2 D103Y/Bcl-2 WT [4] | IC50 [5] | ratio of IC50 of Bcl-2 G101V/Bcl-2 wt, compared with Example F132b in WO2019210828 and ABT-199 (venetoclax) ([6]; comparison in words) | Ratio of Bcl-2 G101V/WT [6] | IC50 [3, 9]
CC(C)c1ccccc1C1CN(C(C)c2ccccc2)CCN1C1CC2(CCN(c3ccc(C(=O)NS(=O)(=O)c4ccc(NC[C@H]5CC[C@](C)(O)CC5)c([N+](=O)[O-])c4)c(Oc4cnc5[nH]ccc5c4)c3)CC2)C1 (single isomer, unassigned) [Example 24b, 2-((1H-pyrrolo[2,3-b]pyridin-5-yl)oxy)-N-((4-((((1r,4r)-4-hydroxy-4-methylcyclohexyl)methyl)amino)-3-nitrophenyl)sulfonyl)-4-(2-(2-(2-isopropylphenyl)-4-(1-phenylethyl)piperazin-1-yl)-7-azaspiro[3.5]nonan-7-yl)benzamide] | 6.49 nM | 0.24 nM | 0.24 nM | 0.75 nM | 9.25 | significantly lower | 2.3 | 1.1 nM | much lower | 4.6 | –
CC(C)c1ccccc1C1CN(C2CCC2)CCN1C1CC2(CCN(c3ccc(C(=O)NS(=O)(=O)c4ccc(NC[C@H]5CC[C@](C)(O)CC5)c([N+](=O)[O-])c4)c(Oc4cnc5[nH]ccc5c4)c3)CC2)C1 (stereo partly shown) [Example 5, 2-((1H-pyrrolo[2,3-b]pyridin-5-yl)oxy)-4-(2-(4-cyclobutyl-2-(2-isopropylphenyl)piperazin-1-yl)-7-azaspiro[3.5]nonan-7-yl)-N-((4-((((1r,4r)-4-hydroxy-4-methylcyclohexyl)methyl)amino)-3-nitrophenyl)sulfonyl)benzamide] | 5.33 nM | 0.037 nM | 0.037 nM | – | 9.49 | – | 12 | 0.45 nM | – | 12.2 | 0.58 nM
CC(C)c1ccccc1[C@@H]1CN(Cc2ccc(C3COC3)cc2)CCN1C1CC2(C1)CN(c1ccc(C(=O)NS(=O)(=O)c3ccc(NC[C@H]4CC[C@](C)(O)CC4)c([N+](=O)[O-])c3)c(Oc3cnc4[nH]cc(F)c4c3)c1)C2 [Example 362, 2-((3-fluoro-1H-pyrrolo[2,3-b]pyridin-5-yl)oxy)-N-((4-((((1r,4r)-4-hydroxy-4-methylcyclohexyl)methyl)amino)-3-nitrophenyl)sulfonyl)-4-(6-((R)-2-(2-isopropylphenyl)-4-(4-(oxetan-3-yl)benzyl)piperazin-1-yl)-2-azaspiro[3.3]heptan-2-yl) benzamide] | 0.17 nM | 0.07 nM | 0.069 nM | – | 10.02 | – | 1.4 | 0.14 nM | – | 2 | 0.08 nM
CC(C)c1ccccc1C1CN(Cc2ccccc2)CCN1C1CC2(CCN(c3ccc(C(=O)NS(=O)(=O)c4ccc(NCC5(F)CCOCC5)c([N+](=O)[O-])c4)c(Oc4cnc5[nH]ccc5c4)c3)CC2)C1 (stereo not shown) [Example 27, 2-((1H-pyrrolo[2,3-b]pyridin-5-yl)oxy)-4-(2-(4-benzyl-2-(2-isopropylphenyl)piperazin-1-yl)-7-azaspiro[3.5]nonan-7-yl)-N-((4-(((4-fluorotetrahydro-2H-pyran-4-yl)methyl)amino)-3-nitrophenyl)sulfonyl)benzamide] | 7.77 nM | 0.27 nM | 0.27 nM | – | 9.31 | – | 1.8 | 2.7 nM | – | 10.0 | 1.05 nM
CC(C)c1ccccc1C1CN(Cc2cccc3sccc23)CCN1C1CC2(CCN(c3ccc(C(=O)NS(=O)(=O)c4ccc(NC[C@H]5CC[C@](C)(O)CC5)c([N+](=O)[O-])c4)c(Oc4cnc5[nH]ccc5c4)c3)CC2)C1 (stereo partly shown) [Example 59, 2-((1H-pyrrolo[2,3-b]pyridin-5-yl)oxy)-4-(2-(4-(benzo[b]thiophen-4-ylmethyl)-2-(2-isopropylphenyl)piperazin-1-yl)-7-azaspiro[3.5]nonan-7-yl)-N-((4-((((1r,4r)-4-hydroxy-4-methylcyclohexyl)methyl)amino)-3-nitrophenyl)sulfonyl)benzamide] | 10.4 nM | 0.73 nM | 0.73 nM | – | 8.49 | significantly lower | 4.4 | 3 nM | – | 4.1 | 0.8 nM
CC(C)c1ccccc1C1CC(Oc2ccccc2)CCN1C1CC2(CCN(c3ccc(C(=O)NS(=O)(=O)c4ccc(NC[C@H]5CC[C@](C)(O)CC5)c([N+](=O)[O-])c4)c(Oc4cnc5[nH]ccc5c4)c3)CC2)C1 (stereo partly shown) [Example 68, 2-((1H-pyrrolo[2,3-b]pyridin-5-yl)oxy)-N-((4-((((1r,4r)-4-hydroxy-4-methylcyclohexyl)methyl)amino)-3-nitrophenyl)sulfonyl)-4-(2-(2-(2-isopropylphenyl)-4-phenoxypiperidin-1-yl)-7-azaspiro [3.5]nonan-7-yl)benzamide] | 4.7 nM | 0.2 nM | 0.2 nM | – | 9.06 | significantly lower | 4.3 | 0.81 nM | – | 4 | 0.47 nM
COc1cc(CN2CCN(C3CC4(C3)CN(c3ccc(C(=O)NS(=O)(=O)c5ccc(NC[C@H]6CC[C@](C)(O)CC6)c([N+](=O)[O-])c5)c(Oc5cnc6[nH]ccc6c5)c3)C4)[C@H](c3ccccc3C(C)C)C2)cnc1OC [Example 242, 2-((1H-pyrrolo[2,3-b]pyridin-5-yl)oxy)-4-(6-((R)-4-((5,6-dimethoxypyridin-3-yl)methyl)-2-(2-isopropylphenyl)piperazin-1-yl)-2-azaspiro[3.3]heptan-2-yl)-N-((4-((((1r,4r)-4-hydroxy-4-methylcyclohexyl)methyl)amino)-3-nitrophenyl)sulfonyl)benzamide] | 0.28 nM | 0.03 nM | 0.03 nM | – | 10.48 | – | 1.1 | 0.077 nM | – | 2.6 | 0.17 nM
COc1cc(CN2CCN(C3CC4(C3)CN(c3ccc(C(=O)NS(=O)(=O)c5ccc(NC[C@H]6CC[C@](C)(O)CC6)c([N+](=O)[O-])c5)c(Oc5cnc6[nH]ccc6c5)c3)C4)[C@H](c3ccccc3C(C)C)C2)cc2c1OCC2(C)C [Example 296, 2-((1H-pyrrolo[2,3-b]pyridin-5-yl)oxy)-N-((4-((((1r,4r)-4-hydroxy-4-methylcyclohexyl)methyl)amino)-3-nitrophenyl)sulfonyl)-4-(6-((R)-2-(2-isopropylphenyl)-4-((7-methoxy-3,3-dimethyl-2,3-dihydrobenzofuran-5-yl)methyl)piperazin-1-yl)-2-azaspiro[3.3]heptan-2-yl)benzamide] | 0.55 nM | 0.13 nM | 0.13 nM | – | 9.85 | – | 1.1 | 0.28 nM | – | 2.1 | 0.24 nM
COc1ccc(CN2CCN(C3CC4(CCN(c5ccc(C(=O)NS(=O)(=O)c6ccc(NC[C@H]7CC[C@](C)(O)CC7)c([N+](=O)[O-])c6)c(Oc6cnc7[nH]cc(Cl)c7c6)c5)CC4)C3)[C@H](c3ccccc3C(C)C)C2)cc1 [Example 123, 2-((3-chloro-1H-pyrrolo[2,3-b]pyridin-5-yl)oxy)-N-((4-((((1r,4r)-4-hydroxy-4-methylcyclohexyl)methyl)amino)-3-nitrophenyl)sulfonyl)-4-(2-((R)-2-(2-isopropylphenyl)-4-(4-methoxybenzyl)piperazin-1-yl)-7-azaspiro[3.5]nonan-7-yl) benzamide] | 1.1 nM | 0.54 nM | 0.54 nM | – | 9.15 | – | 1.3 | 1.8 nM | – | 3.3 | 0.25 nM
